Where “and” joins values, the source holds several entries; their conditions need not be identical. Identical values can stand only once. Inconclusive results and toxic doses are left out.
Test system: P388 leukemia ip, CD2F1 mice, survival T/C
Experiment: NCI In Vivo Anticancer Drug Screen. Data for tumor model P388 Leukemia (intraperitoneal) in CD2F1 (CDF1) mice
Details: endpoint: median survival time, higher = longer survival
How it was run: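 Mice carrying the transplanted tumor received test compound or vehicle. Survival was recorded in each group, and the value is the treated-group measurement divided by that of the vehicle-treated control group.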

[1] = dose: 15.0 mg/kg/injection, schedule: Q01DX005 (ip), vehicle: saline with Tween-80
[2] = dose: 30.0 mg/kg/injection, schedule: Q01DX005 (ip), vehicle: saline with Tween-80
[3] = dose: 120.0 mg/kg/injection, schedule: Q01DX005 (ip), vehicle: saline with Tween-80
[4] = dose: 50.0 mg/kg/injection, schedule: Q01DX009 (ip), vehicle: saline with Tween-80
[5] = dose: 60.0 mg/kg/injection, schedule: Q01DX005 (ip), vehicle: saline with Tween-80
[6] = dose: 50.0 mg/kg/injection, schedule: Q01DX009 (ip), vehicle: saline
[7] = dose: 100.0 mg/kg/injection, schedule: Q01DX009 (ip), vehicle: saline
[8] = dose: 200.0 mg/kg/injection, schedule: Q01DX009 (ip), vehicle: saline
[9] = dose: 100.0 mg/kg/injection, schedule: Q04DX002 (ip), vehicle: saline with Tween-80
[10] = dose: 200.0 mg/kg/injection, schedule: Q04DX002 (ip), vehicle: saline with Tween-80
[11] = dose: 400.0 mg/kg/injection, schedule: Q04DX002 (ip), vehicle: saline with Tween-80

With `COC(=O)C1NC(C)(C(=O)OC)C2C(=O)NC(=O)C12` (stereo not given) the T/C (dose: 100.0 mg/kg/injection, schedule: Q04DX002 (ip), vehicle: Klucel (hydroxypropylcellulose) (HPC)) was 95 % of control, the T/C (dose: 200.0 mg/kg/injection, schedule: Q04DX002 (ip), vehicle: Klucel (hydroxypropylcellulose) (HPC)) was 93 % of control and the T/C (dose: 400.0 mg/kg/injection, schedule: Q04DX002 (ip), vehicle: Klucel (hydroxypropylcellulose) (HPC)) was 88 % of control.

For `CNC(=O)c1cccc2ccc[n+](C)c12`, the T/C (dose: 0.62 mg/kg/injection, schedule: Q04DX002 (ip), vehicle: saline) was 107 % of control, the T/C (dose: 1.25 mg/kg/injection, schedule: Q04DX002 (ip), vehicle: saline) was 109 % of control and the T/C (dose: 2.5 mg/kg/injection, schedule: Q04DX002 (ip), vehicle: saline) was 108 % of control.

In the case of `c1ccc(-c2csc(=[N+]3CCCCC3)s2)cc1`, the T/C (dose: 6.25 mg/kg/injection, schedule: Q01DX009 (ip), vehicle: water) was 111 % of control and 117 % of control and 124 % of control.

`NCCCCC(C(=O)NC(CO)C(=O)O)N(C(=O)OCc1ccccc1)C(=O)OCc1ccccc1` (stereo not given) was tested, and the T/C (dose: 50.0 mg/kg/injection, schedule: Q01DX005 (ip), vehicle: saline with Tween-80) was 101 % of control, the T/C (dose: 100.0 mg/kg/injection, schedule: Q01DX005 (ip), vehicle: saline with Tween-80) was 101 % of control and the T/C (dose: 200.0 mg/kg/injection, schedule: Q01DX005 (ip), vehicle: saline with Tween-80) was 90 % of control.

In the case of `CCc1nc(N)nc(N)c1-c1ccc(NCCCCCCCCCCCCN)c([N+](=O)[O-])c1`, the T/C [1] was 117 % of control, the T/C [2] was 107 % of control and the T/C [3] was 91 % of control.

`CC(Cl)C(=O)N(C)c1ccccc1` (stereo not given) was tested, and the T/C (dose: 100.0 mg/kg/injection, schedule: Q04DX003 (ip), vehicle: Klucel (hydroxypropylcellulose) (HPC)) was 96 % of control and the T/C (dose: 200.0 mg/kg/injection, schedule: Q04DX003 (ip), vehicle: Klucel (hydroxypropylcellulose) (HPC)) was 92 % of control.

With `Cc1nnc(-n2cccc2)s1` the T/C (dose: 12.5 mg/kg/injection, schedule: Q01DX009 (ip), vehicle: Klucel (hydroxypropylcellulose) (HPC)) was 105 % of control, the T/C (dose: 25.0 mg/kg/injection, schedule: Q01DX009 (ip), vehicle: Klucel (hydroxypropylcellulose) (HPC)) was 104 % of control and 95 % of control and the T/C (dose: 50.0 mg/kg/injection, schedule: Q01DX009 (ip), vehicle: Klucel (hydroxypropylcellulose) (HPC)) was 100 % of control and 106 % of control. The T/C (dose: 100.0 mg/kg/injection, schedule: Q01DX009 (ip), vehicle: Klucel (hydroxypropylcellulose) (HPC)) was 100 % of control and 111 % of control.

For `O=C(O)C(Cc1ccccc1F)NC(=O)C(F)(F)F` (stereo not given), the T/C [4] was 92 % of control, the T/C (dose: 100.0 mg/kg/injection, schedule: Q01DX009 (ip), vehicle: saline with Tween-80) was 94 % of control and the T/C (dose: 200.0 mg/kg/injection, schedule: Q01DX009 (ip), vehicle: saline with Tween-80) was 100 % of control.

`CC12C=CC(O1)C1C(=O)OC(=O)C12` (stereo not given) was tested, and the T/C [5] was 101 % of control and the T/C [3] was 90 % of control.

In the case of `O=C(Nc1ccc(Cl)c(Cl)c1)OCc1ccco1`, the T/C (dose: 60.0 mg/kg/injection, schedule: Q01DX005 (ip), vehicle: Klucel (hydroxypropylcellulose) (HPC)) was 105 % of control and the T/C (dose: 120.0 mg/kg/injection, schedule: Q01DX005 (ip), vehicle: Klucel (hydroxypropylcellulose) (HPC)) was 105 % of control.

For `COc1ccc2c(c1)N=C(NNC1=Nc3cc(OC)ccc3SC1)CS2`, the T/C [1] was 113 % of control and 97 % of control, the T/C [2] was 101 % of control and 102 % of control and the T/C [5] was 100 % of control and 91 % of control.

`CC(N)C(=O)O` (stereo not given) was tested, and the T/C [6] was 115 % of control, the T/C [7] was 105 % of control and the T/C [8] was 106 % of control.

For `CCC1(O)OC(=O)C(C)=C1C` (stereo not given), the T/C (dose: 12.5 mg/kg/injection, schedule: Q04DX003 (ip), vehicle: saline) was 98 % of control, the T/C (dose: 25.0 mg/kg/injection, schedule: Q04DX003 (ip), vehicle: saline) was 95 % of control and the T/C (dose: 50.0 mg/kg/injection, schedule: Q04DX003 (ip), vehicle: saline) was 99 % of control.

In the case of `O=C1CS(=O)(=O)C(c2cccs2)N1CCN1C(=O)CS(=O)(=O)C1c1cccs1` (stereo not given), the T/C [9] was 97 % of control and 94 % of control, the T/C [10] was 94 % of control and 93 % of control and the T/C [11] was 92 % of control and 90 % of control.

`Cn1c(=O)ccc2c(=O)c3ccccc3oc21` was tested, and the T/C [9] was 100 % of control, the T/C [10] was 110 % of control and the T/C [11] was 107 % of control.

With `O=C(O)c1c[nH]c2cc(O)ccc2c1=O` the T/C (dose: 12.5 mg/kg/injection, schedule: Q01DX009 (ip), vehicle: saline with Tween-80) was 98 % of control, the T/C (dose: 25.0 mg/kg/injection, schedule: Q01DX009 (ip), vehicle: saline with Tween-80) was 96 % of control and the T/C [4] was 103 % of control. The T/C [6] was 103 % of control, the T/C [7] was 101 % of control and the T/C [8] was 95 % of control.

For `CC1(CCl)CC(=O)N1C(N)=O` (stereo not given), the T/C [6] was 96 % of control, the T/C [7] was 104 % of control and the T/C [8] was 105 % of control.

— PubChem BioAssay AID330 (DTP/NCI, 2004)
